# Assay results from patent publication US20250034216A1, “STEREOSELECTIVE COVALENT LIGANDS FOR ONCOGENIC AND IMMUNOLOGICAL PROTEINS” (The Scripps Research Institute, priority 2021, published 2025).
# Assays:
# Assay in all cases: IA-DTB cysteine engagement
# Assay type in all cases: binding
# Conditions in all cases: 22Rv1 cells, 20 μM probe, 1 h, relative to DMSO
# SNX11_C181 = molecular target: T1, SNX11_C181 (Homo sapiens, UniProt Q9Y5W9)
# T1 construct: endogenous in cells; host or cells: 22Rv1
# T1 sequence (Q9Y5W9 1-270): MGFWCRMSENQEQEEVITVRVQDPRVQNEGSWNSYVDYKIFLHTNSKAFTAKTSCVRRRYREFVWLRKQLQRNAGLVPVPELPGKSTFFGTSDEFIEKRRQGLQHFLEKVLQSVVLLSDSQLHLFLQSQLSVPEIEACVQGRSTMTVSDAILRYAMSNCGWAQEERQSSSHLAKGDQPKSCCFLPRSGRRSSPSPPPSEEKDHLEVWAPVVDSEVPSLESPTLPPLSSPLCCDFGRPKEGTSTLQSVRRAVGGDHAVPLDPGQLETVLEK
# Outline: (§1)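 Read-out is TMT-based cysteine engagement, expressed as each reporter ion intensity divided by the average of the DMSO channels. Before that, probe-treated cell lysates were capped with IA-DTB, digested, enriched on streptavidin and TMT-tagged. PSMs with DMSO summed intensity <10,000 or DMSO CV >0.5 were excluded.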
# PLPPR2_C207 = molecular target: T2, PLPPR2_C207 (Homo sapiens, UniProt Q96GM1)
# T2 construct: endogenous in cells; host or cells: 22Rv1
# T2 sequence (Q96GM1 1-343): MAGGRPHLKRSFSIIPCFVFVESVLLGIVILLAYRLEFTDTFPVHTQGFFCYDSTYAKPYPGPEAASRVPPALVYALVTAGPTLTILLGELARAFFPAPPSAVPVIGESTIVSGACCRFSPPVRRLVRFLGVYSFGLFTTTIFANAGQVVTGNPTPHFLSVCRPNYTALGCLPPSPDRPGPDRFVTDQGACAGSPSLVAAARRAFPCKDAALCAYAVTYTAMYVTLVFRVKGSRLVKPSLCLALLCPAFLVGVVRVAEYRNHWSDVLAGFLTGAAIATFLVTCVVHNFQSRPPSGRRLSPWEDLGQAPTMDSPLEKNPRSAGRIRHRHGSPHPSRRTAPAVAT
# Outline: as §1
# HARS2_C175 = molecular target: T3, HARS2_C175 (Homo sapiens, UniProt P49590)
# T3 construct: endogenous in cells; host or cells: 22Rv1
# T3 sequence (P49590 34-506): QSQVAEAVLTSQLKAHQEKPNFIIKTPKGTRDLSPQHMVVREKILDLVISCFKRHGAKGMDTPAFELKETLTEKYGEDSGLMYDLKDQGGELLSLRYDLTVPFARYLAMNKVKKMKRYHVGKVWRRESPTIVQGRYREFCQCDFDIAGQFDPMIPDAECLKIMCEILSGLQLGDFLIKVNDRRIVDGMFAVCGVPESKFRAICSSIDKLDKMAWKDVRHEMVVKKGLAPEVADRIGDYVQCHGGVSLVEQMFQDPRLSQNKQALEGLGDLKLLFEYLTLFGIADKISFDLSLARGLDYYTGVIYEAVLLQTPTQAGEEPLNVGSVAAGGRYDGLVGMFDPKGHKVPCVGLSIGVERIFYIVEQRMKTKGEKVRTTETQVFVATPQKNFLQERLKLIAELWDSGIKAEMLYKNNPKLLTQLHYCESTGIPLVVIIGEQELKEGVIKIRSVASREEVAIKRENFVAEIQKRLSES
# Outline: as §1
% engagement SNX11_C181 (SNX11_C181),% engagement PLPPR2_C207 (PLPPR2_C207),% engagement HARS2_C175 (HARS2_C175),Structure (SMILES)
23%,71%,44.5%,"C=CC(=O)N1C[C@H](c2ccc(Br)cc2)[C@H]1C(=O)Nc1cccc2cccnc12 [MY-3B, (2S,3S)-1-acryloyl-3-(4-bromophenyl)-N-(quinolin-8-yl)azetidine-2-carboxamide]"
68.5%,31%,67%,"C=CC(=O)N1C[C@H](c2ccc(Br)cc2)[C@@H]1C(=O)Nc1cccc2cccnc12 [MY-1B, (2R,3S)-1-acryloyl-3-(4-bromophenyl)-N-(quinolin-8-yl)azetidine-2-carboxamide]"
17%,46.5%,11.5%,"C=CC(=O)N1C[C@H](c2ccc(Br)cc2)[C@H]1C(=O)Nc1cccc2cccnc12 [MY-3A, (2S,3S)-1-acryloyl-3-(4-bromophenyl)-N-(quinolin-8-yl)azetidine-2-carboxamide]"
54.5%,30.5%,100%,"C=CC(=O)N1C[C@@H](c2ccc(Br)cc2)[C@H]1C(=O)Nc1cccc2cccnc12 [MY-1A, (2S,3R)-1-acryloyl-3-(4-bromophenyl)-N-(quinolin-8-yl)azetidine-2-carboxamide]"
